Measurements as given in PMC6934184, “Selective DNA-PKcs inhibition extends the therapeutic index of localized radiotherapy and chemotherapy” (The Journal of Clinical Investigation, 2019).

Biological target: T1, MST1R (RON) (Homo sapiens, UniProt Q04912)
T1 construct: purchased Thermo Fisher Scientific (Life Technologies) SelectScreen
Experiment: SelectScreen Z'LYTE
Assay type: biochemical
Outline: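 NU5455 was profiled across the SelectScreen Broad panel of kinase activity and binding assays. Z'LYTE reactions such as CSF1R ran at apparent Km ATP, while the Adapta CAMK1 assay used ATP listed as 10. Values are given as percent.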

T1 sequence (Q04912 25-1400): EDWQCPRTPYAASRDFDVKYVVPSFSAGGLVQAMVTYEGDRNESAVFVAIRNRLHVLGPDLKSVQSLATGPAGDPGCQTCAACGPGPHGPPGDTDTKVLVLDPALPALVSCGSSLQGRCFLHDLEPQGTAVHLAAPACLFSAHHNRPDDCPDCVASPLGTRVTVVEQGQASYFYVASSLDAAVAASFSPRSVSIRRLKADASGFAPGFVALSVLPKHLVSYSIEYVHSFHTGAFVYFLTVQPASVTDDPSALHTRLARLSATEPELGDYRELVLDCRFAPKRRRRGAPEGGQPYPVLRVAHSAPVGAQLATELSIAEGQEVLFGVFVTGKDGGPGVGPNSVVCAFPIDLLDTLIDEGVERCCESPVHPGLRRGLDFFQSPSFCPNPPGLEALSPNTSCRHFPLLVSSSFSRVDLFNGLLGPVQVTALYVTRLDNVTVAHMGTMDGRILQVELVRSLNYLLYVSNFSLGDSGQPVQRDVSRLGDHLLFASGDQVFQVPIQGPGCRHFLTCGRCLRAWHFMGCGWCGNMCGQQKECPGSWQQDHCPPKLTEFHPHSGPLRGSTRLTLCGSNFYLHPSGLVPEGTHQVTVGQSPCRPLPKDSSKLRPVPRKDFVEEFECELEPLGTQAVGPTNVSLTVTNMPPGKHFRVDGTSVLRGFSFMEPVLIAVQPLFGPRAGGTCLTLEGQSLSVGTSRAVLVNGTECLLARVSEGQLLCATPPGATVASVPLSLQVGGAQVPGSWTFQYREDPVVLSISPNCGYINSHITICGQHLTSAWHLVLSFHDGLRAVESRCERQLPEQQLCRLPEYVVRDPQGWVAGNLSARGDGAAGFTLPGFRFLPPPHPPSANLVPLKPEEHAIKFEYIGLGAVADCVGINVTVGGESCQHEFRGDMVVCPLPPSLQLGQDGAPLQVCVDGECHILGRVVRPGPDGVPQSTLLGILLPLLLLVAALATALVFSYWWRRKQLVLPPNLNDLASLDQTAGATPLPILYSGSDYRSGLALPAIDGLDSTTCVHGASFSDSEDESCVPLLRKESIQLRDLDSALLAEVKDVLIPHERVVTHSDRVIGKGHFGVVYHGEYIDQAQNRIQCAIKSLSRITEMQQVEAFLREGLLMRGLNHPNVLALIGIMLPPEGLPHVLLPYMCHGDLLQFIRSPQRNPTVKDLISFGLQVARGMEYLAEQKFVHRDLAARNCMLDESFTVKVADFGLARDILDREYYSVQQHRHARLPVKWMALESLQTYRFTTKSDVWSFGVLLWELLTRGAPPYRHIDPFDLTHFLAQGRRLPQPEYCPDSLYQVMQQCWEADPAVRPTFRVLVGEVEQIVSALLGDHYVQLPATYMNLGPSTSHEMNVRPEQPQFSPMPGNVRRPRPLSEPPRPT

`CN(C(=O)CN1CCOCC1)c1ccc2sc3c(-c4cccc5c(=O)cc(N6CC7CCC(C6)O7)oc45)cccc3c2c1` [NU5455] showed an inhibition at 1 µM of -13.4%.
